# In patent publication US6071905A, “Biologically active substance on the basis of tetracyclic nitrogen heterocycles of pyrimidine row” (Natural Drug Sciences, LLC, priority 1998, dated 2000):
# System: M. tuberculosis 16R
# Assay: action on pathogenic mycobacteria from patients, Lowenstein-Jensen medium, M. tuberculosis 16R
# Format: cell-based
# Details: title: concentration of compound 10.0 g/l; 30 days; resistant to control compounds
row,Compound,"antimicrobial action, M. tuberculosis 16R"
1,"NNC(=O)c1ccncc1 [Isoniazid, hydrazide of izonicotinic acid, reference compound]",growth
2,"CO[C@H]1/C=C/O[C@@]2(C)Oc3c(C)c(O)c4c(O)c(cc(O)c4c3C2=O)NC(=O)/C(C)=C\C=C\[C@H](C)[C@H](O)[C@@H](C)[C@@H](O)[C@@H](C)[C@H](OC(C)=O)[C@@H]1C [Rifamycin, reference compound]",growth
3,"[H]/N=C(/N)N[C@H]1[C@H](O)[C@@H](O)[C@H](O[C@@H]2O[C@@H](C)[C@](O)(C=O)[C@H]2O[C@@H]2O[C@@H](CO)[C@H](O)[C@@H](O)[C@@H]2NC)[C@@H](N/C(N)=N\[H])[C@@H]1O [Streptomycin, reference compound]",growth
4,"CC[C@@H](CO)NCCN[C@@H](CC)CO [Ethambutol, reference compound]",growth
